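Dose response: 5 concentrations. Exposure: 48 h. Format: 96-well plates. Endpoint: linear interpolation; highest concentration if not reached. GI50 marks 50% less growth. At the TGI there is no net growth.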
Tests used:
Assay in all cases: NCI-60 cell line screen, 48 h
[1] = system: SK-MEL-2 melanoma
[2] = system: HL-60(TB) leukemia
[3] = system: HT29 colon
[4] = system: 786-0 renal
[5] = system: CAKI-1 renal
[6] = system: OVCAR-4 ovarian
[7] = system: UO-31 renal
[8] = system: EKVX NSCLC
[9] = system: SN12C renal
[10] = system: HS 578T breast

| Structure (SMILES) | TGI [1] [µM] | TGI [2] [µM] | TGI [3] [µM] | TGI [4] [µM] | TGI [5] [µM] | TGI [6] [µM] | TGI [7] [µM] | TGI [8] [µM] | TGI [9] [µM] | GI50 [1] [µM] | GI50 [2] [µM] | GI50 [3] [µM] | GI50 [4] [µM] | GI50 [5] [µM] | GI50 [6] [µM] | GI50 [8] [µM] | GI50 [9] [µM] | GI50 [10] [µM] | TGI [10] [µM] | GI50 [7] [µM] |
| --- | --- | --- | --- | --- | --- | --- | --- | --- | --- | --- | --- | --- | --- | --- | --- | --- | --- | --- | --- | --- |
| Cc1[nH]c2ccccc2c1/C=C/c1c(C)[nH]c2ccccc12 | > 100 | > 100 | > 100 | > 100 | > 100 | > 100 | > 100 | > 100 | – | – | – | – | – | – | – | – | – | – | – | – |
| CS(=O)(=O)ON1C(=O)c2ccc(N)cc2C1=O | > 100 | 46.5 | > 100 | > 100 | – | > 100 | > 100 | > 100 | > 100 | – | – | – | – | – | – | – | – | – | – | – |
| CC(=O)[CH-]C(=O)c1ccccc1.CC(=O)[CH-]C(=O)c1ccccc1.CC[C@H](CCC(C)[C@H]1CCC2[C@@H]3CC=C4C[C@@H]([O-])CC[C@]4(C)C3CC[C@@]21C)C(C)C.CC[C@H](CCC(C)[C@H]1CCC2[C@@H]3CC=C4C[C@@H]([O-])CC[C@]4(C)C3CC[C@@]21C)C(C)C.Cl.[Ti+4] (some centres not stated) | > 25 | > 25 | > 25 | > 25 | > 25 | > 25 | > 25 | > 25 | > 25 | – | – | – | – | – | – | – | – | – | – | – |
| CN(C)CC1CCCC/C1=N\OC(=O)c1ccccc1 (configuration not stated) | > 100 | > 100 | > 100 | > 100 | > 100 | > 100 | > 100 | > 100 | > 100 | – | – | – | – | – | – | – | – | – | – | – |
| CC(=O)[CH-]C(=O)c1ccccc1.CC(=O)[CH-]C(=O)c1ccccc1.CC(=O)[CH-]C(=O)c1ccccc1.[Cl-].[Hf+4] | 53.2 | > 100 | > 100 | > 100 | 62.6 | > 100 | – | 92.9 | > 100 | 18.1 | 25.8 | 19.1 | 25.7 | 20.1 | 86.5 | 24.2 | 28.8 | – | – | – |
| c1ccc(C2=Nc3ccccc3N3CNN=C23)cc1 | > 100 | – | > 100 | > 100 | > 100 | > 100 | > 100 | > 100 | > 100 | > 100 | – | 52.2 | > 100 | > 100 | > 100 | 47.9 | > 100 | 81.8 | > 100 | > 100 |
| COC12OCCN(C)C1=CC(=O)C1N=NCC12 (configuration not stated) | – | > 100 | > 100 | > 100 | > 100 | – | > 100 | > 100 | > 100 | – | – | – | – | – | – | – | – | – | – | – |
| O=C(CC(=O)N1N=C(n2ccc3ccccc32)CC1c1ccccc1)Nc1ccccc1Cl (configuration not stated) | > 100 | > 100 | > 100 | > 100 | – | > 100 | > 100 | > 100 | > 100 | – | – | – | – | – | – | – | – | – | – | – |
| O=c1[nH]c(-c2ccccc2)nc2cc([N+](=O)[O-])c(/C(Cl)=C/c3ccccc3)cc12 | 71.8 | – | – | > 100 | > 100 | 49.5 | > 100 | > 100 | > 100 | – | – | – | – | – | – | – | – | – | – | – |
| COc1c(CC(C)=O)c2ccccc2n1C(C)=O | > 100 | > 100 | > 100 | > 100 | > 100 | > 100 | > 100 | > 100 | > 100 | – | – | – | – | – | – | – | – | – | – | – |
| C/C(=C\CNc1ncnc2c1ncn2C1CCCCO1)COP(=O)(O)O (configuration not stated) | > 100 | > 100 | > 100 | > 100 | > 100 | > 100 | > 100 | > 100 | > 100 | – | – | – | – | – | – | – | – | – | – | – |
| CN(C)C/C=C/C(=O)Nc1ccc(C(=O)Nc2cccc(Nc3ncc(Cl)c(-c4c[nH]c5ccccc45)n3)c2)cc1 | 0.0682 | – | 0.678 | – | 0.686 | – | 0.666 | 0.283 | – | 0.021 | – | 0.0385 | 0.0441 | 0.0607 | 0.021 | 0.03 | 0.0249 | 0.0363 | 0.195 | 0.199 |
| [pH]1p2[pH]p3p1p3[pH]2.c1cc[c]([Ge]([c]2ccccc2)[c]2ccccc2)cc1.c1cc[c]([Ge]([c]2ccccc2)[c]2ccccc2)cc1.c1cc[c]([Ge]([c]2ccccc2)[c]2ccccc2)cc1 | 34.9 | 57.3 | 34 | 32.3 | 44.8 | 56.7 | 29.8 | 46.3 | 29.7 | 19.4 | 15.5 | 17.6 | 17.1 | 20.6 | 25.2 | 21.3 | 15.1 | – | – | 16.3 |
| CC(=O)CCC[C@@H](C)[C@@H]1O[C@H]([C@@]2(C)CCC(=O)O2)CC2[C@H]1OC(=O)C21CC1 (some centres not stated) | > 100 | > 100 | > 100 | > 100 | > 100 | > 100 | > 100 | 49.5 | > 100 | > 100 | > 100 | > 100 | > 100 | 61.2 | > 100 | 8.03 | > 100 | – | – | > 100 |
| COC(=O)C1=C(C)N(NC(N)=O)C2(N)N(NC(N)=O)C(C)=C(C(=O)OC)C12C#N (configuration not stated) | > 100 | > 100 | > 100 | > 100 | > 100 | > 100 | > 100 | > 100 | > 100 | – | – | – | – | – | – | – | – | – | – | – |
| CC(=O)NNc1nc(C)c(C(=O)/C=C/c2ccc(N(C)C)cc2)s1 | > 100 | > 100 | > 100 | > 100 | > 100 | – | > 100 | > 100 | > 100 | – | – | – | – | – | – | – | – | – | – | – |
| COc1ccc(N=Nc2c(-c3ccccc3)nn(C(=O)CC(=O)Nc3ccc(OC)cc3)c2-c2ccccc2)cc1 | > 100 | > 100 | > 100 | > 100 | > 100 | > 100 | > 100 | > 100 | > 100 | – | – | – | – | – | – | – | – | – | – | – |
| NC(N)=NCCCC(Nc1c2ccccc2nc2ccccc12)C(=O)O (configuration not stated) | > 100 | > 100 | > 100 | > 100 | > 100 | 43.4 | – | > 100 | > 100 | – | – | – | – | – | – | – | – | – | – | – |
| O=C1NC(c2cccc3ccccc23)Nc2ccc(Cl)cc21 (configuration not stated) | – | 0.000441 | 0.105 | 23.1 | 11.2 | – | 0.00836 | 83.3 | 17.9 | – | – | – | – | 0.0109 | – | 0.0129 | – | – | – | – |
